Assay results taken from patent publication US10519116B2, “Water-soluble pyrazole derivatives as corrosion inhibitors” (Ecolab USA Inc., priority 2015, dated 2019).
In brackets after ≈: the same amount, converted by molar mass.

How the values were obtained:
[1] = Copper corrosion rate by linear polarization resistance measurements; conditions: copper coupons, 5 ppm inhibitor, pH 7.0, 45° C.; for No FRC Corrosion Rate: absence of bleach, average over 24 hour period; for 1 ppm FRC Corrosion Rate: bleach added to keep FRC at 1 ppm
Protocol: The corrosion rate of copper in the presence of (1H-pyrazol-1-yl)methanol, (3,5-dimethyl-1H-pyrazol-1-yl)methanol, (3,5-dimethyl-1H-pyrazol-1-yl)(phenyl)methanol, 1-(3,5-dimethyl-1H-pyrazol-1-yl)ethan-1-ol, 2-(1H-pyrazol-1-yl)ethan-1-ol, 3-phenyl-1H-pyrazole, 4-chloro-3,5-dimethyl-1H-pyrazole, and 3,5-dimethylpyrazole was determined using linear polarization resistance measurements. In addition, the corrosion rate of copper in the presence of pyrazole, 1-ethyl-1H-pyrazole, and tolyltriazole was determined using linear polarization resistance measurements. (1H-Pyrazol-1-yl)methanol, (3,5-dimethyl-1H-pyrazol-1-yl)methanol, (3,5-dimethyl-1H-pyrazol-1-yl)(phenyl)methanol, 4-chloro-3,5-dimethyl-1H-pyrazole, and 1-(3,5-dimethyl-1H-pyrazol-1-yl)ethan-1-ol were prepared by Applicants. Pyrazole, 3,5-dimethylpyrazole, 2-(1H-pyrazol-1-yl)ethan-1-ol, and 1-ethyl-1H-pyrazole were purchased from TCI America. 3-Phenyl-1H-pyrazole and tolyltriazole were purchased from Sigma-Aldrich (St. Louis, Mo.).
For each experiment, cylindrical copper coupons pre-polished using SIC 600 paper and fitted on a Pine rotator were immersed in a solution of corrosion inhibitor. The test solution comprised 470 ppm calcium, 230 ppm magnesium, 590 ppm chloride, 260 ppm sulfate, and 100 ppm alkalinity, as CaCO3. The pH of the test water was maintained at 7.0 using carbon dioxide, and the water temperature was maintained at 45° C. throughout the experiment.
The copper samples were immersed in 1 liter electrochemical cells comprising a 5 ppm inhibitor solution, and the Rp (polarization resistance) was recorded over a 24 hour period. The analysis was conducted using the following testing conditions: Initial E: −0.02V; Final E: +0.02V; Scan rate: 0.5 mV/s; Sample period: 1 second; Repeat time: 15 minutes; Sample area: 5 cm^2; Density: 8.92 g/cm^3; Copper Eq. Weight: 63.54 g; and Initial delay: 30 seconds.
Next, the copper samples were exposed to 1 ppm FRC by adding a few drops of 4% bleach solution to the electrolyte solution. After the FRC reached 1 ppm, the copper samples were analyzed. Throughout the analysis, the bleach solution was added intermittently to maintain the FRC at 1 ppm. The Rp in the absence and presence of bleach was collected and analyzed, and the average corrosion rate was calculated and recorded in Table 1. Corrosion rates were calculated in mils per year (mpy). FIGS. 1-3 display data plots for compounds 1, 3, 5, 6, and 9.

[2] = Turbidity of 2% aqueous solutions at various pH levels (solubility); type: physicochemical; conditions: judged from turbidity at a wide range of pH levels
Protocol: Solutions comprising (1H-pyrazol-1-yl)methanol and 3,5-dimethylpyrazole at various pH levels were prepared by dissolving the corresponding pyrazole (2 grams) in deionized water (98 grams). The solutions were adjusted to the desired pH by adding dilute sulfuric acid or aqueous sodium hydroxide (1 N). The turbidity of each solution was measured using a HACH 2100Q Portable Turbidimeter.

[3] = Ceriodaphnia dubia 48-Hour Definitive Toxicity Test; type: in vivo; conditions: Ceriodaphnia dubia, in vivo, other: aquatic exposure (compound in the test water)
Protocol: (§1) The aquatic toxicity of (1H-pyrazol-1-yl)methanol toward a variety of species was analyzed. (1H-pyrazol-1-yl)methanol had lower aquatic toxicity than many commonly used corrosion inhibitors.

[4] = test system: Ceriodaphnia dubia; assay: as above; type: in vivo
Protocol: as §1

[5] = test system: Oncorhynchus mykiss; assay: in vivo; conditions: 96-hour definitive toxicity test
Protocol: as §1

[6] = in vivo; conditions: in vivo; 96-hour definitive toxicity test
Protocol: as §1

[7] = test system: Pseudokirchneriella subcapita; assay: Chronic 72-Hour Green Algal Growth Test; type: in vivo; conditions: 72-hour chronic green algal growth test
Protocol: as §1

| Compound | No FRC Corrosion Rate [1] | 1 ppm FRC Corrosion Rate [1] | other results |
| --- | --- | --- | --- |
| Tolyltriazole [Compound 11, reference compound] | 0.0214 mpy | 0.0995 mpy |  |
| Cc1cc(C)n(C(O)c2ccccc2)n1 (centres unmarked) [Compound 2, (3,5-dimethyl-1H-pyrazol-1-yl)(phenyl)methanol] | 0.0043 mpy | 0.0479 mpy |  |
| c1cn[nH]c1 [Compound 9, Pyrazole] | 0.4232 mpy | 0.1666 mpy |  |
| Cc1n[nH]c(C)c1Cl [Compound 7, 4-chloro-3,5-dimethyl-1H-pyrazole] | 0.0025 mpy | 0.0212 mpy |  |
| Cc1cc(C)[nH]n1 [Compound 6, 3,5-dimethylpyrazole] | 0.0396 mpy | 0.0599 mpy | water solubility [2]: water soluble |
| OCn1cccn1 [Compound 1, (1H-pyrazol-1-yl)methanol] | 0.0057 mpy | 0.0296 mpy | water solubility [2]: water soluble; LC50 at 48 h [3]: 31.5 µg/mL (≈ 321 µM); NOEC (survival) [4]: 13 mg/L; LC50 [5]: >100 µg/mL; NOEC (survival) [5]: 50 mg/L; LC50 at 96 h [6]: > 100 µg/mL; IC50 [7]: 3.83 µg/mL (≈ 39 µM); NOEC (survival) [7]: 2.5 mg/L; No FRC Corrosion Rate ([1]; listed as (1H-pyrazol-1-yl)methanol): 0.0057 mpy |
| c1ccc(-c2cc[nH]n2)cc1 [Compound 8, 3-phenyl-1H-pyrazole] | 0.0039 mpy | 0.0916 mpy |  |
| Cc1cc(C)n(CO)n1 [Compound 5, (3,5-dimethyl-1H-pyrazol-1-yl)-methanol] | 0.0197 mpy | 0.0228 mpy |  |
| OCCn1cccn1 [Compound 4, 2-(1H-pyrazol-1-yl)ethan-1-ol] | 0.0212 mpy | 0.2739 mpy |  |
| Cc1cc(C)n(C(C)O)n1 (centres unmarked) [Compound 3, 1-(3,5-dimethyl-1H-pyrazol-1-yl)ethan-1-ol] | 0.0036 mpy | 0.0142 mpy |  |
| CCn1cccn1 [Compound 10, 1-ethyl-1H-pyrazole, reference compound] | 0.0345 mpy | 0.5932 mpy |  |
